In patent US20240368163A1, “COMPOUNDS AND METHODS FOR MODULATING SPLICING” (REMIX THERAPEUTICS INC., priority 2021, published 2024):

Assays:
Format in all cases: cell-based, human
Target C [1] = assay: Splicing RT-qPCR panel, Target C canonical junction (CJ) mRNA; details: Homo sapiens, RT-qPCR panel, canonical junction mRNA; compound concentration having 50% response in CJ decrease; read-out: Target C IC50 (decrease in CJ mRNA levels)
Summary of the method: (§1)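 Cells: A673 (DMEM/10% FBS) or K562 (IMDM/10% FBS). Dose: 11-pt 3-fold, top 10 uM final, ≤0.25% DMSO, 24 h, 37 °C. Readout: RT-qPCR of CJ/AJ exon junctions, ΔΔCt vs housekeeper and DMSO, RQ to % response.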

HTT [2] = assay: Splicing RT-qPCR assay, HTT mRNA canonical junction (CJ) and alternative junction (AJ); details: Homo sapiens; for AC50: increase in AJ mRNA
Summary of the method: as §1

SMN2 = assay: Splicing RT-qPCR panel, SMN2 canonical junction (CJ) mRNA; details: Homo sapiens, RT-qPCR panel, canonical junction mRNA; compound concentration having 50% response in CJ decrease; read-out: SMN2 IC50 (decrease in CJ mRNA levels)
Summary of the method: as §1

HTT [3] = assay: HiBiT protein abundance assay, HTT; details: Homo sapiens, K562, 24 h, Table 13A, modified K562 cells
Summary of the method: (§2)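 HiBiT-tagged endogenous targets in K562 cells treated 24 h at 37° C. with 10-point 3-fold dilutions (top 10 μM, DMSO ≤0.25%). Luminescence read after lytic LgBiT detection; response normalised to unmodified-cell and DMSO controls, IC50 interpolated at 50% from four-parameter logistic fit.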

Target C [4] = assay: HiBiT protein abundance assay, Target C; details: Table 13A, modified K562 cells
Summary of the method: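 HiBiT knock-in K562-derived cells seeded at 10000/well and treated with 10-point 3-fold dilutions (top final 10 μM, ≤0.25% DMSO) for 24 h at 37 °C. Lytic HiBiT luminescence normalised to unmodified-cell and DMSO controls; IC50 from 4-parameter fit at 50% abundance.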

MYB [5] = assay: HiBiT protein abundance assay, MYB; details: Homo sapiens, K562, 24 h, Table 13A, modified K562 cells
Summary of the method: as §2

MYB [6] = assay: Splicing RT-qPCR assay, MYB mRNA canonical junction (CJ) and alternative junction (AJ); details: Homo sapiens; for AC50: increase in AJ mRNA
Summary of the method: as §1

[7] = 24 h, decrease in CJ mRNA, A673 or K562 cells, 24 hours treatment, RT-qPCR, read-out: HTT CJ IC50
[8] = 24 h, A673 or K562 cells, 24 hours treatment, RT-qPCR
[9] = RT-qPCR panel, canonical junction mRNA, compound concentration having 50% response in CJ decrease, read-out: HTT IC50 (decrease in CJ mRNA levels)
[10] = 24 h, decrease in CJ mRNA, A673 or K562 cells, 24 hours treatment, RT-qPCR, read-out: MYB CJ IC50
[11] = RT-qPCR panel, canonical junction mRNA, compound concentration having 50% response in CJ decrease, read-out: MYB IC50 (decrease in CJ mRNA levels)

Row | SMILES | IC50 (Target C [1]) | IC50 (HTT [2]; [7]) | AC50 (HTT [2]; [8]) | IC50 (HTT [2]; [9]) | IC50 (SMN2) | IC50 (HTT [3]) | IC50 (Target C [4]; Homo sapiens, K562, 24 h) | IC50 (MYB [5]) | IC50 (MYB [6]; [10]) | AC50 (MYB [6]; [8]) | IC50 (MYB [6]; [11]) | IC50 (Target C [4]; 24 hours)
1 | CN(c1ccc(-c2ccc(-c3cnn(C4CC4)n3)c3cn[nH]c23)nn1)[C@@H]1C[C@H]2CC[C@@H](C1)N2 [Compound 312, (1R,3s,5S)-N-(6-(4-(2-cyclopropyl-2H-1,2,3-triazol-4-yl)-1H-indazol-7-yl)pyridazin-3-yl)-N-methyl-8-azabicyclo[3.2.1]octan-3-amine] | 1000 to 10000 nM | 1000 to 10000 nM | 1000 to 10000 nM | 1000 to 10000 nM | 100 to 1000 nM | 100 to 1000 nM | 1000 to 10000 nM | 100 to 1000 nM | 1000 to 10000 nM | 100 to 1000 nM | 1000 to 10000 nM | –
2 | CN(c1ccc(-c2ccc(-c3cnn(C)n3)c3cn[nH]c23)nn1)C1CCNCC1 [Compound 315, N-methyl-6-[4-(2-methyl-1,2,3-triazol-4-yl)-1H-indazol-7-yl]-N-(piperidin-4-yl)pyridazin-3-amine] | > 10000 nM | 1000 to 10000 nM | 1000 to 10000 nM | 1000 to 10000 nM | 100 to 1000 nM | 100 to 1000 nM | > 10000 nM | 100 to 1000 nM | 1000 to 10000 nM | 1000 to 10000 nM | 1000 to 10000 nM | –
3 | Cn1ncc(-c2ccc(-c3ccc(OC4CC(C)(C)NC(C)(C)C4)nn3)c3[nH]ncc23)n1 [Compound 316] | 1000 to 10000 nM | 100 to 1000 nM | 100 to 1000 nM | 100 to 1000 nM | < 100 nM | 100 to 1000 nM | 100 to 1000 nM | 100 to 1000 nM | 100 to 1000 nM | 100 to 1000 nM | 100 to 1000 nM | –
4 | CCn1ncc(-c2ccc(-c3ccc(N(C)[C@@H]4C[C@H]5CC[C@@H](C4)N5)nn3)c3[nH]ncc23)n1 [Compound 317, N-{6-[4-(2-ethyl-1,2,3-triazol-4-yl)-1H-indazol-7-yl]pyridazin-3-yl}-N-methyl-8-azabicyclo[3.2.1]octan-3-amine] | 1000 to 10000 nM | 100 to 1000 nM | 100 to 1000 nM | 100 to 1000 nM | 1000 to 10000 nM | 100 to 1000 nM | 100 to 1000 nM | 100 to 1000 nM | 100 to 1000 nM | 100 to 1000 nM | 100 to 1000 nM | –
5 | CN(c1ccc(-c2ccc(-c3cnn(CC4CC4)n3)c3cn[nH]c23)nn1)[C@@H]1C[C@H]2CC[C@@H](C1)N2 [Compound 318, N-(6-{4-[2-(cyclopropylmethyl)-1,2,3-triazol-4-yl]-1H-indazol-7-yl}pyridazin-3-yl)-N-methyl-8-azabicyclo[3.2.1]octan-3-amine] | 1000 to 10000 nM | 1000 to 10000 nM | 1000 to 10000 nM | 1000 to 10000 nM | 1000 to 10000 nM | 1000 to 10000 nM | 1000 to 10000 nM | 1000 to 10000 nM | 1000 to 10000 nM | 1000 to 10000 nM | 1000 to 10000 nM | –
6 | Cn1cc(-c2c(F)cc(-c3ccc(OC4CC(C)(C)NC(C)(C)C4)nn3)c3[nH]ncc23)cn1 [Compound 319, 5-fluoro-4-(1-methylpyrazol-4-yl)-7-{6-[(2,2,6,6-tetramethylpiperidin-4-yl)oxy]pyridazin-3-yl}-1H-indazole] | 1000 to 10000 nM | 100 to 1000 nM | 100 to 1000 nM | 100 to 1000 nM | < 100 nM | 100 to 1000 nM | 1000 to 10000 nM | 100 to 1000 nM | 100 to 1000 nM | 1000 to 10000 nM | 100 to 1000 nM | –
7 | CN(c1ccc(-c2cc(F)c(-c3cnn(C)c3)c3cn[nH]c23)nn1)C1CC(C)(C)NC(C)(C)C1 [Compound 320, 6-[5-fluoro-4-(1-methylpyrazol-4-yl)-1H-indazol-7-yl]-N-methyl-N-(2,2,6,6-tetramethylpiperidin-4-yl)pyridazin-3-amine] | 1000 to 10000 nM | 100 to 1000 nM | 100 to 1000 nM | 100 to 1000 nM | < 100 nM | 100 to 1000 nM | – | 100 to 1000 nM | 100 to 1000 nM | – | 100 to 1000 nM | 100 to 1000 nM
